{
  "source": "patent US5244918A",
  "about": "“Benzofuran derivative and pharmaceutical comprising the same as active ingredient” (Meiji Milk Products Co., Ltd., priority 1989, dated 1993)",
  "key": {"5-lipoxygenase": {"target": "T1, 5-lipoxygenase (Rattus norvegicus, UniProt P12527)", "T1 construct": "ultracentrifugation at 100,000×g for 90 minutes to collect a supernatant, which was served as a 5-lipoxygenase enzyme liquid; host or cells: RBL-1 (rat basophilic leukemia cells), 100,000×g supernatant of sonicated cells", "T1 sequence (P12527 1-673)": "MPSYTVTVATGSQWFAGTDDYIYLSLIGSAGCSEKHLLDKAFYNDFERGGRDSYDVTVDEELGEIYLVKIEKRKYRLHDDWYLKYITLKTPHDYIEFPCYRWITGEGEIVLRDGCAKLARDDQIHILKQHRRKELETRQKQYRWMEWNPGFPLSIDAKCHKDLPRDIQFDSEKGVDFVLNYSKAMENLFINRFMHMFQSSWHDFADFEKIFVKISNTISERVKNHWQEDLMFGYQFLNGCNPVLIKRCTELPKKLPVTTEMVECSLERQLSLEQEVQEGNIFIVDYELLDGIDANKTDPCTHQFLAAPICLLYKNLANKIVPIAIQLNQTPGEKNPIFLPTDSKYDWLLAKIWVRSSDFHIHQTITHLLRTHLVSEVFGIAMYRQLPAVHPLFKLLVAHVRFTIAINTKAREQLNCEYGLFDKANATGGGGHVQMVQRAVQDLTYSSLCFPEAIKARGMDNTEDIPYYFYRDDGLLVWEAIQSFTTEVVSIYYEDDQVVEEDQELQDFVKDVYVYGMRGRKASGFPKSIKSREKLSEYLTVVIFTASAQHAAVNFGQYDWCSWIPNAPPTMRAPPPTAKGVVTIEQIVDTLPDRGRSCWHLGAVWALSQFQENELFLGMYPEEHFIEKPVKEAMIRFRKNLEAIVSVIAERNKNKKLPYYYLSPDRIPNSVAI", "experiment": "5-Lipoxygenase inhibitive activity (production of 5-HETE by RBL-1 cell supernatant)", "format": "biochemical", "settings": "for pIC50: inhibition of 5-HETE production, 37° C., 10 minutes, 100 μM arachidonic acid", "procedure": "2.5×10^7 RBL-1 cells (rat basophilic leukemia cells, purchased from Dainippon Pharmaceutical Co. Ltd.) were washed twice with 0.1M Tris-HCl buffer (pH 7.5) and ultrasonicated. The pulverized cell liquid was subjected to ultracentrifugation at 100,000×g for 90 minutes to collect a supernatant, which was served as a 5-lipoxygenase enzyme liquid in the test. […] After terminating the reaction by an addition of 50 μl of 1N HCl, the reaction mixture was extracted with 6 ml of ethyl acetate."}, "SRS-A production [1]": {"test_system": "SRS-A production", "settings": "Prostaglandins 26, 955-973 (1983); read-out: 50% inhibition concentration (known agent, literature); cited from earlier work"}, "mice": {"test_system": "mice", "experiment": "Single administration toxicity test in mice", "settings": "mouse, in vivo", "procedure": "Compound 1 was intravenously or intraperitoneally administered one time to groups of ICR male mice (age: 5 weeks, purchased from Japan SLC Co.), each group consisting of 5, to observe the death of the mice in 14 days. […] Thus, the fatal dose of Compound 1 in single intravenous administration to mice was above 20 mg/kg. […] The fatal dose of Compound 1 in single intraperitoneal administration to mice was about 100 mg/kg or more."}, "edema in paws of rats": {"test_system": "edema in paws of rats", "experiment": "Edema inhibitive activity in rat soles (arachidonate-induced paw edema)", "format": "in vivo, rat (Wister male)", "settings": "200 mg/kg oral", "procedure": "In vivo anti-inflammatory action of Compound 1 was tested using edema in paws of rats as a model.\nWister male rats (Japan Charles River), weighing 150-170 g, 6 week age, were fasted from the previous day of the test for serving to the experiment.\nSamples (10 ml/kg) were orally administered to the control (solvent: 0.5% gum arabica) group and Compound 1 (200 mg/kg body weight) test group. After 2 hours, 100 μl of a sodium arachidonate solution (5 mg/ml, 0.1M carbonate buffer, pH 8.4) was injected in the paw to determine the increase of the edema volume after 1 hour. The increase of the edema volume was determined by subtracting the value measured 1 hour before the administration of arachidonate from the value measured 1 hour after the administration. The foot volume increase (ml, means±S.D.) in the control group was 0.822±0.131 (n=10), whereas that in Compound 1 test group was 0.664±0.104 (n=8)."}, "[2]": {"test_system": "auricle edema induced with arachidonic acid", "experiment": "Auricle edema inhibitive activity in mice (induced with arachidonic acid)", "format": "in vivo, mouse (ICR male)", "settings": "topical", "procedure": "In vivo anti-inflammatory action of Compound 1 was tested using auricle edema in mice as a model.\nICR male mice (Japan Charles River), weighing 29.9-40.4 g, 8 week age, were anesthetized with pentobarbital (Trademark: Nembutal, manufactured by Dainabott-Dainippon Pharmaceutical Co., Ltd.) to measure the thickness of the right ear with a dial thickness gauge. 20 μl of Compound 1 and control compound (acetone) were applied (the amount hereinafter specified) to the inside of the right ear with microsyringe, and, 30 minutes later, 2 mg of arachidonic acid was applied in the same manner to the inside of the right ear. The thickness of the right ear was measured 60 minutes after the application of arachidonic acid. Mice were then sacrificed by vertebral cervical dislocation and a circle with a diameter of 7 mm was cut out from the center of the right ear with an ear punch to measure its weight. The test was performed twice; the amounts of Compound 1 applied were 4 mg, 1 mg, 0.4 mg, 0.04 mg, and 0.004 mg per ear for the first test and 1 mg, 0.2 mg, 0.04 mg, 0.008 mg, and 0.0016 mg per ear for the second test. Both Compound 1 and arachidonic acid were used as dissolved in acetone.\nThe results are shown in FIG. 8-1 (the first test) and FIG. 8-2 (the second test). […] The 50% effective dose (ED50) in the two experiments were very close to each other, 0.03-0.08 mg/ear."}, "SRS-A production [3]": {"test_system": "SRS-A production", "experiment": "SRS-A production inhibitive activity (sensitized guinea pig lung fragments, ileum bioassay)", "format": "cell-based, guinea pig (Hartley male)", "procedure": "LTC4 and LTD4 which consist of SRS-A are very strong chemical mediators of allergic bronchial asthma and the like. The inhibitory effect of Compound 1 against the production of SRS-A was therefore biologically measured.\nA suspension of 1 mg of egg white albumin and 0.5 ml of complete Freund's adjuvant was intraperitoneally injected to Hartley male guinea pigs. The same antigen liquid was again injected 2 or 3 weeks thereafter to effect the sensitization. The sensitized guinea pigs were sacrificed by bleeding, and the lung was washed with a Tyrode's solution and cut into pieces to prepare lung fragment specimens. 300 mg of the lung fragments were floated on 2.8 ml of the Tyrode's solution. After shaking the solution at 37° C. for 20 minutes, 0.1 ml of Compound 1 was added. Shaking this solution was carried out for a further 5 minutes, followed by the addition of 0.1 ml of an egg white albumin solution (the ultimate antigen concentration: 1 mg/ml). After the reaction at 37° C. for 20 minutes, 12 ml of methanol was added and the mixture was stirred. The reaction mixture was centrifuged, the supernatant was concentrated under reduced pressure to dryness, and the dry solid was dissolved into 1 ml of water to biologically measure LTs (SRS-A) contained therein.\nThe determination of the quantity of SRS-A produced was carried out by using the ileum enucleated from Hartley male guinea pigs and counting the constriction of the ileum in the presence of 10^-6 M Atropine and Pyrilamine. A standard curve for the standard sample was prepared based on LTD4 to determine the amount of SRS-A produced by the effect of Compound 1 as the amount of LTD4."}},
  "note": "pIC50: −log10 of the molar value. Like-named read-outs stand apart in the source and are kept apart here.",
  "data": [
    {"compound": "CCCCCC1Cc2cc(O)cc(O)c2O1", "note": "(centres unmarked) [Compound 2, 2-n-pentyl-2,3-dihydro-5,7dihydroxybenzofuran]", "values": [
      {"measurement": "pIC50", "setting": "5-lipoxygenase", "value": 5.92}
    ]},
    {"compound": "CC1=C(C)C(=O)C(CCCCC#CCCCC#CCO)=C(C)C1=O", "note": "[AA-861]", "values": [
      {"measurement": "pIC50", "setting": "SRS-A production [1]", "value": 5.74}
    ]},
    {"compound": "C/C=C/C=C/C1Cc2cc(O)cc(O)c2O1", "note": "(stereo not drawn) [Compound 1, 2-(1-tans, 3-trans-pentadienyl)-2,3-dihydro-5,7-dihydroxybenzofuran]", "values": [
      {"measurement": "death of mice, intraperitoneal", "setting": "mice", "value": "no death in the mice occurred"},
      {"measurement": "fatal dose, single intraperitoneal administration", "setting": "mice; ip", "value": "≥ 100", "unit": "mg/kg"},
      {"measurement": "fatal dose, single intravenous administration", "setting": "mice; iv", "value": "above 20 mg/kg"},
      {"measurement": "death of mice, intravenous", "setting": "mice; iv, 20 mg/kg", "value": "no mice were dead"},
      {"measurement": "general conditions, body weight and autopsy, intravenous", "setting": "mice; iv, 20 mg/kg", "value": "No abnormality was observed"},
      {"measurement": "foot volume increase (means±S.D.)", "setting": "edema in paws of rats; 2 h before arachidonate, 1 h after, n=8, control 0.822±0.131 (n=10)", "value": "0.664 ± 0.104", "unit": "mL"},
      {"measurement": "edema inhibitory effect", "setting": "edema in paws of rats; versus control group", "value": 19.2, "unit": "%"},
      {"measurement": "5-lipoxygenase inhibitory activity (in words)", "setting": "5-lipoxygenase", "value": "specific 5-lipoxygenase inhibitory activity"},
      {"measurement": "pIC50", "setting": "5-lipoxygenase", "value": 5.70},
      {"measurement": "50% effective dose (ED50)", "setting": "[2]; inside of right ear, 30 min before 2 mg arachidonic acid, two experiments", "value": "0.03-0.08 mg/ear"},
      {"measurement": "inhibitory effect against auricle edema (in words)", "setting": "[2]; ear thickness and weight, FIG. 8-1, 8-2", "value": "dose dependent inhibitory effect"},
      {"measurement": "SRS-A inhibitory effect compared with AA-861 (in words)", "setting": "SRS-A production [3]; AA-861: 1.8×10^-6 M (literature)", "value": "equivalent to a known 5-lipoxygenase inhibitory agent, AA-861"},
      {"measurement": "pIC50", "setting": "SRS-A production [3]; Cavia porcellus, 20 min, sensitized guinea pig lung fragments, egg white albumin 1 mg/ml, 37° C., 20 min, read-out: 50% inhibition concentration, SRS-A production", "value": 5.40},
      {"measurement": "SRS-A production inhibitory effect (in words)", "setting": "SRS-A production [3]; guinea pig lung", "value": "dependent on the concentration"}
    ]},
    {"compound": "2-(1,3-pentadienyl)-2,3-dihydro-5-hydroxy(or methoxy)-7-methoxy(or hydroxy)benzofuran [Compound 3]", "values": [
      {"measurement": "pIC50", "setting": "5-lipoxygenase", "value": 5.82}
    ]}
  ]
}
